Consider 27 compounds from patent US9951077B2, “Aminopyridazinone compounds as protein kinase inhibitors” (ETERNITY BIOSCIENCE INC., priority 2014, dated 2018).

A value given as a limit tells only on which side of the number the result lay.

In the test the target is Btk (Homo sapiens (Human), UniProt Q06187). Nature of the test: Btk kinase assay (ADP-Glo). In kind it is biochemical. Particulars: ATP 1.2 μM, 60 minutes, room temperature; read-out: BTK enzyme IC50. The procedure: The Btk kinase assay was performed using a ADP-Glo Btk kinase assay kit purchased from Promega (Madison, Wis.). The assay was conducted according to the protocols provided in the assay kit. In brief, the enzyme reaction was carried out in the kinase reaction buffer containing Btk (2 ng/μl), ATP (1.2 μM), poly GT peptide (0.3 μM), DTT (40 nM), MnCl2 (1.4 mM), and 1×kinase buffer (included in the kit) in the presence or absence of the tested articles at various concentrations in 384-well plate at room temperature (22±1° C.) for 60 minutes. The final reaction volume for each reaction was 10 μl. Then, 4 μl of ADP-Glo reagent (included in the kit) was added into the reaction and the plate was further incubated for another 40 minutes to terminate the reaction and deplete the remaining ATP. Finally, 10 μl of the kinase detection reagent was added into each reaction to simultaneously convert ADP to ATP and allow the newly synthesized ATP to be measured by a plate-reading luminometer (Victor X5 2030 multilabel reader, PerkinElmer). IC50 value was calculated using appropriate programs in GraphPad Prism by plotting the logarithm of the concentration versus percent inhibition as compared with a vehicle (DMSO) control.
Sequence of Btk (Q06187 whole entry): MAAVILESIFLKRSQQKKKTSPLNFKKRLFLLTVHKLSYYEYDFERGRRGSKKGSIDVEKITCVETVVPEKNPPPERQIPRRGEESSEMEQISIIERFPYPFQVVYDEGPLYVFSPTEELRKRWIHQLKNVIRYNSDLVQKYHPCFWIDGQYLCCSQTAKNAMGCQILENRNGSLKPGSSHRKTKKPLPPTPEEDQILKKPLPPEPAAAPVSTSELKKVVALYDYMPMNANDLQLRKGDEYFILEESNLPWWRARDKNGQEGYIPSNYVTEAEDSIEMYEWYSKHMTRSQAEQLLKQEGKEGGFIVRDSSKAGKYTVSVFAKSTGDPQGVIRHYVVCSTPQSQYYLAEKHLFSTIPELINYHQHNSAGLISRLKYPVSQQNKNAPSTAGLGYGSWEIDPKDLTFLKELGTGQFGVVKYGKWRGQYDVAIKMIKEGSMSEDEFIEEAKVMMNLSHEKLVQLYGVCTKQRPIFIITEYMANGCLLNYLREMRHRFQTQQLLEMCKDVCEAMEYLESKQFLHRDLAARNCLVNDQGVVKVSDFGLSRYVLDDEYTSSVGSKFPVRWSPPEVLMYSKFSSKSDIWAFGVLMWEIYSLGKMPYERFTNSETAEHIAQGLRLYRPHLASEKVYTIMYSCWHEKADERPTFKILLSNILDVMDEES

On to `CN(C/C=C/C(=O)N1CCC[C@@H](n2cc(-c3ccc(Oc4ccccc4)cc3)c3c(N)n[nH]c(=O)c32)C1)C1CCC1` [Example 31, 4-amino-1-[(3R)-1-[(E)-4-[cyclobutyl(methyl)amino]but-2-enoyl]-3-piperidyl]-3-(4-phenoxyphenyl)-6H-pyrrolo[2,3-d]pyridazin-7-one], for which the IC50 is at most 10 nM.
For the compound `Nc1n[nH]c(=O)c2c1c(-c1ccc(Oc3ccccc3)cc1)cn2[C@@H]1CCCN(C(=O)/C=C/CN2CCC2)C1` [Example 33, 4-amino-1-[(3R)-1-[(E)-4-(azetidin-1-yl)but-2-enoyl]-3-piperidyl]-3-(4-phenoxyphenyl)-6H-pyrrolo[2,3-d]pyridazin-7-one], the IC50 is at most 10 nM.
To `Nc1n[nH]c(=O)c2c1c(-c1ccc(Oc3ccccc3)cc1)cn2[C@@H]1CCCN(C(=O)/C=C/CN2CCCC2)C1` [Example 34, 4-amino-3-(4-phenoxyphenyl)-1-[(3R)-1-[(E)-4-pyrrolidin-1-ylbut-2-enoyl]-3-piperidyl]-6H-pyrrolo[2,3-d]pyridazin-7-one] belongs at most 10 nM; to `Nc1n[nH]c(=O)c2c1c(-c1ccc(Oc3ccccc3)cc1)cn2[C@@H]1CCCN(C(=O)/C=C/CN2CCOCC2)C1` [Example 35, 4-amino-1-[(3R)-1-[(E)-4-morpholinobut-2-enoyl]-3-piperidyl]-3-(4-phenoxyphenyl)-6H-pyrrolo[2,3-d]pyridazin-7-one], at most 10 nM; to `COC/C=C/C(=O)N1CCC[C@@H](n2cc(-c3ccc(Oc4ccccc4)cc3)c3c(N)n[nH]c(=O)c32)C1` [Example 37, 4-amino-1-[(3R)-1-[(E)-4-methoxybut-2-enoyl]-3-piperidyl]-3-(4-phenoxyphenyl)-6H-pyrrolo[2,3-d]pyridazin-7-one], 1000 to 100000 nM.
To `CN(C)C/C=C/C(=O)N1CCCC(n2cc(-c3ccc(Oc4ccccc4)cc3)c3c(N)n[nH]c(=O)c32)C1` (stereo not drawn) [Example 38, 4-amino-1-[1-[(E)-4-(dimethylamino)but-2-enoyl]-3-piperidyl]-3-(4-phenoxyphenyl)-6H-pyrrolo[2,3-d]pyridazin-7-one] belongs at most 10 nM; to `CN(C)C/C=C/C(=O)N1CC[C@@H](n2cc(-c3ccc(Oc4ccccc4)cc3)c3c(N)n[nH]c(=O)c32)C1` [Example 39, 4-amino-1-[(3R)-1-[(E)-4-(dimethylamino)but-2-enoyl]pyrrolidin-3-yl]-3-(4-phenoxyphenyl)-6H-pyrrolo[2,3-d]pyridazin-7-one], at most 10 nM.
To `CN(C)C/C=C/C(=O)N1CC(n2cc(-c3ccc(Oc4ccccc4)cc3)c3c(N)n[nH]c(=O)c32)C1` [Example 40, 4-amino-1-[1-[(E)-4-(dimethylamino)but-2-enoyl]azetidin-3-yl]-3-(4-phenoxyphenyl)-6H-pyrrolo[2,3-d]pyridazin-7-one] belongs 10 to 1000 nM; to `CN(C)C/C=C/C(=O)N1CCC[C@H]1Cn1cc(-c2ccc(Oc3ccccc3)cc2)c2c(N)n[nH]c(=O)c21` [Example 41, 4-amino-1-[[(2S)-1-[(E)-4-(dimethylamino)but-2-enoyl]pyrrolidin-2-yl]methyl]-3-(4-phenoxyphenyl)-6H-pyrrolo[2,3-d]pyridazin-7-one], 10 to 1000 nM.
Turning to `CN(C)C/C=C/C(=O)N1CCC[C@@H]1Cn1cc(-c2ccc(Oc3ccccc3)cc2)c2c(N)n[nH]c(=O)c21` [Example 42, 4-amino-1-[[(2R)-1-[(E)-4-(dimethylamino)but-2-enoyl]pyrrolidin-2-yl]methyl]-3-(4-phenoxyphenyl)-6H-pyrrolo[2,3-d]pyridazin-7-one], the IC50 is 1000 to 100000 nM.
Regarding `CN(C)C/C=C/C(=O)N1CCC(Cn2cc(-c3ccc(Oc4ccccc4)cc3)c3c(N)n[nH]c(=O)c32)C1` (stereo not drawn) [Example 43, 4-amino-1-[[1-[(E)-4-(dimethylamino)but-2-enoyl]pyrrolidin-3-yl]methyl]-3-(4-phenoxyphenyl)-6H-pyrrolo[2,3-d]pyridazin-7-one], the IC50 was 10 to 1000 nM.
For the compound `CN(C)C/C=C/C(=O)N1CCC(n2cc(-c3ccc(Oc4ccccc4)cc3)c3c(N)n[nH]c(=O)c32)CC1` [Example 44, 4-amino-1-[1-[(E)-4-(dimethylamino)but-2-enoyl]-4-piperidyl]-3-(4-phenoxyphenyl)-6H-pyrrolo[2,3-d]pyridazin-7-one], the IC50 was in the range of 10 to 1000 nM.
`CN(C)C/C=C/C(=O)N1C[C@H](n2cc(-c3ccc(Oc4ccccc4)cc3)c3c(N)n[nH]c(=O)c32)CC(F)(F)C1` [Example 49, 4-amino-1-[(3R)-1-[(E)-4-(dimethylamino)but-2-enoyl]-5,5-difluoro-3-piperidyl]-3-(4-phenoxyphenyl)-6H-pyrrolo[2,3-d]pyridazin-7-one]: the 50% inhibitory concentration (IC50) is 10 to 1000 nM.
To `N#C/C(=C\C1CC1)C(=O)N1CCC[C@@H](n2cc(-c3ccc(Oc4ccccc4)cc3)c3c(N)n[nH]c(=O)c32)C1` [Example 50, (E)-2-[(3R)-3-[4-amino-7-oxo-3-(4-phenoxyphenyl)-6H-pyrrolo[2,3-d]pyridazin-1-yl]piperidine-1-carbonyl]-3-cyclopropyl-prop-2-enenitrile] belongs 10 to 1000 nM.
Turning to `C=CC(=O)N1CCCC(n2cc(-c3ccc(OC)cc3)c3c(N)n[nH]c(=O)c32)C1` (stereo not drawn) [Example 51, 1-(1-acryloylpiperidin-3-yl)-4-amino-3-(4-methoxyphenyl)-1H-pyrrolo[2,3-d]pyridazin-7(6H)-one], the IC50 was at most 10 nM.
As for `COc1ccc(-c2cn(C3CCCN(C(=O)/C=C/CN(C)C)C3)c3c(=O)[nH]nc(N)c23)cc1` (stereo not drawn) [Example 52, 4-amino-1-[1-[(E)-4-(dimethylamino)but-2-enoyl]-3-piperidyl]-3-(4-methoxyphenyl)-6H-pyrrolo[2,3-d]pyridazin-7-one], the IC50 is at most 10 nM.
To `C=CC(=O)N1CCCC(n2cc(-c3ccc(OC)c(Cl)c3)c3c(N)n[nH]c(=O)c32)C1` (stereo not drawn) [Example 53, 1-(1-acryloylpiperidin-3-yl)-4-amino-3-(3-chloro-4-methoxyphenyl)-1H-pyrrolo[2,3-d]pyridazin-7(6H)-one] belongs at most 10 nM; to `COc1ccc(-c2cn(C3CCCN(C(=O)/C=C/CN(C)C)C3)c3c(=O)[nH]nc(N)c23)cc1Cl` (stereo not drawn) [Example 54, 4-amino-3-(3-chloro-4-methoxy-phenyl)-1-[1-[(E)-4-(dimethylamino)but-2-enoyl]-3-piperidyl]-6H-pyrrolo[2,3-d]pyridazin-7-one], at most 10 nM.
Turning to `C=CC(=O)N1CCCC(n2cc(-c3ccc(Oc4ccccc4F)cc3)c3c(N)n[nH]c(=O)c32)C1` (stereo not drawn) [Example 55, 1-(1-acryloylpiperidin-3-yl)-4-amino-3-(4-(2-fluorophenoxy)phenyl)-1H-pyrrolo[2,3-d]pyridazin-7(6H)-one], the IC50 was at most 10 nM.
As for `C=CC(=O)N1CCC[C@@H](n2cc(-c3ccc(Oc4ccccc4F)cc3)c3c(N)n[nH]c(=O)c32)C1` [Example 56, (R)-1-(1-acryloylpiperidin-3-yl)-4-amino-3-(4-(2-fluorophenoxy)phenyl)-1H-pyrrolo[2,3-d]pyridazin-7(6H)-one], the IC50 was at most 10 nM.
Take `CN(C)C/C=C/C(=O)N1CCC[C@@H](n2cc(-c3ccc(Oc4ccccc4F)cc3)c3c(N)n[nH]c(=O)c32)C1` [Example 57, 4-amino-1-[(3R)-1-[(E)-4-(dimethylamino)but-2-enoyl]-3-piperidyl]-3-[4-(2-fluorophenoxy)phenyl]-6H-pyrrolo[2,3-d]pyridazin-7-one]: the IC50 is at most 10 nM.
Consider `CN(C)C/C=C/C(=O)N1CCC[C@@H](n2cc(-c3ccc(Oc4c(F)cccc4F)cc3)c3c(N)n[nH]c(=O)c32)C1` [Example 59, 4-amino-3-[4-(2,6-difluorophenoxy)phenyl]-1-[(3R)-1-[(E)-4-(dimethylamino)but-2-enoyl]-3-piperidyl]-6H-pyrrolo[2,3-d]pyridazin-7-one], for which the concentration for half-maximal inhibition (IC50) was in the range of 10 to 1000 nM.
Take `C=CC(=O)N1CCCC(n2cc(-c3ccc(Oc4ccc(F)cc4)cc3)c3c(N)n[nH]c(=O)c32)C1` (stereo not drawn) [Example 60, 1-(1-acryloylpiperidin-3-yl)-4-amino-3-(4-(4-fluorophenoxy)phenyl)-1H-pyrrolo[2,3-d]pyridazin-7(6H)-one]: the IC50 lay in the range of 10 to 1000 nM.
Take `CN(C)C/C=C/C(=O)N1CCCC(n2cc(-c3ccc(Oc4ccc(F)cc4)cc3)c3c(N)n[nH]c(=O)c32)C1` (stereo not drawn) [Example 61, 4-amino-1-[1-[(E)-4-(dimethylamino)but-2-enoyl]-3-piperidyl]-3-[4-(4-fluorophenoxy)phenyl]-6H-pyrrolo[2,3-d]pyridazin-7-one]: the IC50 was in the range of 10 to 1000 nM.
`C=CC(=O)N1CCCC(n2cc(-c3ccc(Oc4cccc(F)c4)cc3)c3c(N)n[nH]c(=O)c32)C1` (stereo not drawn) [Example 62, 1-(1-acryloylpiperidin-3-yl)-4-amino-3-(4-(3-fluorophenoxy)phenyl)-1H-pyrrolo[2,3-d]pyridazin-7(6H)-one]: the IC50 was in the range of 10 to 1000 nM.
To `CN(C)C/C=C/C(=O)N1CCCC(n2cc(-c3ccc(Oc4cccc(F)c4)cc3)c3c(N)n[nH]c(=O)c32)C1` (stereo not drawn) [Example 63, 4-amino-1-[1-[(E)-4-(dimethylamino)but-2-enoyl]-3-piperidyl]-3-[4-(3-fluorophenoxy)phenyl]-6H-pyrrolo[2,3-d]pyridazin-7-one] belongs at most 10 nM; to `C=CC(=O)N1CCCC(n2cc(-c3ccc(Oc4ccc(Cl)cc4)cc3)c3c(N)n[nH]c(=O)c32)C1` (stereo not drawn) [Example 64, 1-(1-acryloylpiperidin-3-yl)-4-amino-3-(4-(4-chlorophenoxy)phenyl)-1H-pyrrolo[2,3-d]pyridazin-7(6H)-one], 10 to 1000 nM.
